Data on ten compounds can be found in PubChem BioAssay (NCI).

Several values for one entry are separate records, joined by “and”; a condition that tells them apart may be missing. Identical values can stand only once.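 Results reflect a 48-hour exposure of cells in 96-well plates to compound at five concentrations. GI50: concentration for 50% inhibition of growth. TGI marks complete inhibition of growth.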

Holding throughout (assay): growth of human tumour cells (NCI), 48 h
The test system of assay [1] is LOX IMVI melanoma.
The subject of assay [2] is SF-295 CNS.
The subject of assay [3] is KM12 colon.
Assay [4] relates to T-47D breast.
Assay [5] concerns HCT-15 colon.
For assay [6], the system named is UACC-257 melanoma.
The subject of assay [7] is SN12C renal.
Assay [8] deals with BT-549 breast.

On to `Cc1c2c(nn1-c1ccc(S(=O)(=O)NC(=S)NC(=O)c3ccccc3)cc1)-c1ccccc1CC2`, for which the GI50 in assay [1] was 50.3 µM; in assay [2], 17.4 µM; in assay [3], 34.5 µM; in assay [4], 44.9 µM; in assay [5] it was 39.5 µM; in assay [6], 10.7 µM. In assay [7], the GI50 was 34.4 µM. Also, the TGI was over 100 µM in assay [1]; 48.6 µM in assay [2]; over 100 µM in assay [3]; over 100 µM in assay [4]; over 100 µM in assay [5]; 47.4 µM in assay [6]. Moreover, in assay [7], the TGI was over 100 µM.
Take `NCCSC(c1ccccc1)(c1ccccc1)c1ccccc1`: the GI50 was 1.42 µM in assay [1]; 0.967 µM in assay [2]; 1.84 µM in assay [3]; 2.62 µM in assay [4]; 0.409 µM in assay [5]; 1.13 µM in assay [6]. Also, the values for the GI50 in assay [7] and in assay [8] were 0.739 µM and 3.51 µM, respectively. Moreover, the TGI in assay [1] is 2.9 µM; in assay [2] it was 2.76 µM; in assay [3], 4.82 µM; in assay [4], 8.42 µM; in assay [5] it was 1.75 µM; in assay [6], 2.68 µM. In addition, the TGI in assay [7] is 11.7 µM; in assay [8], 14.2 µM.
For `COc1cc2nc3cc([N+](=O)[O-])ccc3c(NCCNCC(C)O)c2cc1OC` (centres undefined), the GI50 in assay [1] was 0.768 µM; in assay [2] it was 0.484 µM; in assay [3], 0.619 µM; in assay [4], 0.365 µM; in assay [5], 3.27 µM; in assay [6], 1.63 µM. For the same compound, the GI50 in assay [8] was 1.75 µM. The TGI in assay [1] was 2.51 µM; in assay [2] it was 3.34 µM; in assay [3], 2.87 µM; in assay [4] it was 2.33 µM; in assay [5] it was 13.1 µM; in assay [6], 3.67 µM. Also, the TGI in assay [8] is 3.9 µM.
For the compound `CC(=O)OCCCC#CC#Cc1cccc(=O)o1`, the GI50 in assay [1] was 15.8 µM; in assay [2] it was 17.8 µM; in assay [3], 16 µM; in assay [4] it was 20 µM; in assay [5], 11.7 µM; in assay [6] it was 23.8 µM. The GI50 was 19 µM in assay [7] and 10.6 µM in assay [8]. The TGI in assay [1] came out at 54 µM; in assay [2], 32.7 µM; in assay [3], 30.9 µM; in assay [4] it was 51.1 µM; in assay [5], 25.7 µM; in assay [6], 55.6 µM. In addition, the TGI in assay [7] is 39.7 µM; in assay [8] it was 26.6 µM.
`CC1Cc2ccccc2N1C(=O)Cc1nc(N2CCOCC2)cc(=O)[nH]1` (centres undefined): the GI50 in assay [1] was 11.6 µM and 16.7 µM; in assay [2], 3.15 µM and 6.95 µM; in assay [3] it was 20.2 µM and 47.6 µM; in assay [4], 1.6 µM and 3.73 µM; in assay [5], 16.1 µM and 27.7 µM; in assay [6], 15.9 µM and 20.2 µM. In addition, the GI50 in assay [7] was 9.39 µM and 13.9 µM; in assay [8], 1.37 µM and 5.58 µM. Besides, the TGI is 73.7 µM and > 100 µM in assay [1]; > 100 µM and 97.7 µM in assay [2]; 55.1 µM and > 100 µM in assay [3]; 42.6 µM and 99.7 µM in assay [4]; over 100 µM in assay [5]; over 100 µM in assay [6]. In addition, the TGI was over 100 µM in assay [7]; 57.2 µM and > 94.7 µM in assay [8].
Turning to `O=c1cccc2n1CC1CNC[C@H]2C1`, the TGI in assay [1], in assay [2], in assay [3], in assay [4], in assay [5] and in assay [6] was over 100 µM each time. The TGI in assay [7] and in assay [8] was over 100 µM each time.
Turning to `Cc1ccc(OCCOCCOCCOCCOCCOc2ccc(C)n(O)c2=S)c(=S)n1O`, the GI50 in assay [1] was 0.054 µM; in assay [2], 0.0378 µM; in assay [3] it was 0.0573 µM; in assay [4], 0.0402 µM; in assay [5], 0.0392 µM; in assay [6], 0.0425 µM. Further, the figures for the GI50 in assay [7] and in assay [8] were 0.0496 µM and 0.103 µM, respectively. Besides, the TGI was 21.8 µM in assay [1]; over 43.6 µM in assay [2]; 39.1 µM in assay [3]; over 100 µM in assay [4]; over 100 µM in assay [5]; over 66.4 µM in assay [6]. In addition, the TGI is over 100 µM in assay [7] and over 64.5 µM in assay [8].
Take `Cc1[nH]nc2ncc(C(=O)N3CCC[C@H]3c3ccc(Cl)cc3)cc12`: the GI50 is 47.2 µM in assay [1]; 63.5 µM in assay [2]; 51.6 µM in assay [3]; 58.3 µM in assay [5]; over 100 µM in assay [6]; over 100 µM in assay [7]. The GI50 in assay [8] is 50.6 µM. For the same compound, the TGI in assay [1], in assay [2], in assay [3], in assay [5], in assay [6] and in assay [7] was over 100 µM each time. This compound showed a TGI in assay [8] of over 100 µM.
Take `CN1CCN(CCCN2c3ccccc3Sc3ccc(Cl)cc32)CC1`: the GI50 is 4.75 µM in assay [1]; 6 µM and 33.2 µM in assay [2]; 5.72 µM and 35.5 µM in assay [4]; 5.12 µM and 48 µM in assay [5]; 5.83 µM and 56.8 µM in assay [7]; 6.56 µM in assay [8]. The TGI was 11.6 µM in assay [1]; 12.8 µM and 55.6 µM in assay [2]; 12.4 µM and 95.2 µM in assay [3]; 13 µM and 62.6 µM in assay [4]; 11.5 µM and 77.8 µM in assay [5]; 12.8 µM in assay [7]. In addition, in assay [8], the TGI was 13.4 µM.
Turning to `NC(N)=N/N=C/c1c(-c2cccnc2)nc2sc(Cl)cn12`, the GI50 in assay [1] is 12.4 µM; in assay [2], 13.8 µM; in assay [3] it was 3.95 µM; in assay [5] it was 14.9 µM; in assay [6], 20.4 µM; in assay [8] it was 16.3 µM. The TGI in assay [1] was found to be 24.8 µM; in assay [2] it was 28.1 µM; in assay [3], 14.3 µM; in assay [5], 28.1 µM; in assay [6], 40.5 µM; in assay [8], 32.4 µM.
